Measured values reported in patent publication US9877980B2, “Method and composition for treatment or prevention of type 2 diabetes and hyperlipidemia” (Chun-Ching Shih, priority 2016, dated 2018).
Marks after values point to notes of the source that are not given here.

Assays:
Type in all cases: in vivo
[1] = system: C57BL/6J mice on high-fat diet (HFD); assay: Blood parameters (glucose, insulin, TG, FFA, TC, leptin, adiponectin) in HFD mice; conditions: for Blood parameters Adiponectin / Blood parameters FFA / Blood parameters Leptin / Blood parameters TC / blood level of glucose / blood level of insulin: 4 weeks
Procedure: (§1) The following experiment was performed and approved by the guidelines of the Institutional Animal Care and Use Committee of Central Taiwan University of Science and Technology. The 4-week old male C57BL/6J mice (total amount n=63) were purchased from the National Laboratory Animal Breeding and Research Center (Taipei, Taiwan). After acclimatization for one week, all of the mice were divided randomly into the control (CON) group and the high-fat diet (HFD) group. […] After HFD exposure for 8 weeks, the HFD group was further randomly subdivided into 6 groups (n=9 per group) to receive different treatments by oral gavage once daily for four weeks and on HFD. […] The HF+B1, HF+B2, and […] are collectively termed BB-treated HFD groups in the following examples. The CON mice were administered vehicle. After dosing for 4 weeks, the mice were given no food at night and sacrificed after 12 h of fasting on the next day. All of the individual tissues were collected and weighed, and portions were instantly frozen using liquid nitrogen and kept at −80° C. for subsequent target gene analysis. Blood samples (0.8 mL) were collected for analysis of blood parameters.
A portion of the blood samples obtained from the retro-orbital sinus of fasted mice were immediately used to measure blood glucose levels using Sidekick glucose analyzer (YSI 1500, YSI Incorporated, Yellow Springs, USA) according to the glucose oxidase method. Heparin (30 units/mL, Sigma) was added into other portions of the blood samples. […] Concentrations of plasma triglycerides (TG), total cholesterol (TC), and free fatty acids (FFA) were determined using commercial assay kits according to the manufacturer's instructions (Triglycerides-E test, Cholesterol-E test, and FFA-C test, Wako Pure Chemical, Osaka, Japan). Plasma insulin, leptin, and adiponectin levels were assessed using commercial assay kits according to the manufacturer's instructions (mouse insulin ELISA kit, Mercodia, Uppsala, Sweden; mouse leptin ELISA kit, Morinaga, Yokohama, Japan; Mouse Adiponectin ELISA kit, Crystal Chem International, Downers Grove, Ill., USA).

PEPCK = assay: Semi-quantitative RT-PCR of liver mRNA: PEPCK; conditions: HFD mice, 4 weeks, vs HF group
Procedure: as §1
(§2) Total RNA from liver tissue of mice was isolated with a Trizol Reagent (Molecular Research Center, Inc., Cincinnati, Ohio, USA) according to the manufacturer's instructions. The integrity of the extracted total RNA was examined by 2% agarose gel electrophoresis, and the RNA concentration was determined by the ultraviolet (UV) light absorbency at 260 nm and 280 nm (Spectrophotometer U-2800A, Hitachi). The quality of the RNA was confirmed by ethidium bromide staining of 18S and 28S ribosomal RNA after electrophoresis on 2% agarose gel containing 6% formaldehyde.
(§3) Levels of mRNA of genes of interest were quantified by semi-quantitative reverse transcription polymerase chain reaction (RT-PCR). […] PCR products were analyzed by 2% agarose gels and stained with ethidium bromide.

G6Pase = assay: Semi-quantitative RT-PCR of liver mRNA: G6Pase; conditions: HFD mice, 4 weeks, vs HF group
Procedure: as §1, §2, §3

DGAT2 = assay: Semi-quantitative RT-PCR of liver mRNA: DGAT2; conditions: HFD mice, 4 weeks, vs HF group
Procedure: as §1, §2, §3

GPAT = assay: Semi-quantitative RT-PCR of liver mRNA: GPAT; conditions: HFD mice, 4 weeks, vs HF group
Procedure: as §1, §2, §3

adiponectin = assay: Semi-quantitative RT-PCR of liver mRNA: adiponectin; conditions: HFD mice; 40 mg/kg/day oral gavage, 4 weeks; vs HF group
Procedure: as §1, with “The CON mice were administered vehicle. After dosing for 4 weeks, the mice were given no food at night and sacrificed after 12 h of fasting on the next day. All of the individual tissues were collected and weighed, and portions were instantly frozen using liquid nitrogen and kept at −80° C. for subsequent target gene analysis. Blood samples (0.8 mL) were collected for analysis of blood parameters.” left out
Total RNA from liver tissue of mice was isolated with a Trizol Reagent (Molecular Research Center, Inc., Cincinnati, Ohio, USA) according to the manufacturer's instructions. The integrity of the extracted total RNA was examined by 2% agarose gel electrophoresis, and the RNA concentration was determined by the ultraviolet (UV) light absorbency at 260 nm and 280 nm (Spectrophotometer U-2800A, Hitachi). […]
as §3

GLUT4 = assay: Western blotting of membrane GLUT4 in skeletal muscle; conditions: HFD mice, 4 weeks, vs HF group
Procedure: as §1
The protein concentration in supernatant was determined with a BCA protein assay kit (Thermo Scientific, Rockford, Ill., USA). […] Immunoreactive bands were detected with ECL reagent kit (GE Healthcare BioSciences, Buckinghamshire, UK).

[2] = 10 mg/kg/day oral gavage, vs HF group
[3] = 20 mg/kg/day oral gavage, vs HF group
[4] = 40 mg/kg/day oral gavage, vs HF group

## OCC1O[C@@H](O[C@@H]2Cc3c(O)cc(O)cc3O[C@@H]2c2ccc(O)c(O)c2)C(O)C(O)[C@@H]1O (single isomer, unassigned; (-)) [compound of formula I, (−)-epicatechin-3-O-β-D-allopyranoside]
[1]; 10 mg/kg/day oral gavage
  Blood parameters Adiponectin: 2.895 ± 0.010^f μg/mL
  Blood parameters FFA: 1.11 ± 0.13^d mEq/L
  Blood parameters Leptin: 1.662 ± 0.009^f ng/mL
  Blood parameters TC: 153.5 ± 7.7 mg/dL
[1]; [2]
  blood level of glucose: markedly lowered
  blood level of insulin: markedly lowered
[1]; 20 mg/kg/day oral gavage
  Blood parameters Adiponectin: 3.277 ± 0.052^f μg/mL
  Blood parameters FFA: 0.95 ± 0.04^f mEq/L
  Blood parameters Leptin: 1.372 ± 0.029^f ng/mL
  Blood parameters TC: 144.1 ± 4.0 mg/dL
[1]; [3]
  blood level of glucose: markedly lowered
  blood level of insulin: markedly lowered
[1]; 40 mg/kg/day oral gavage
  Blood parameters Adiponectin: 3.628 ± 0.034^f μg/mL
  Blood parameters FFA: 0.86 ± 0.09^f mEq/L
  Blood parameters Leptin: 1.321 ± 0.008^f ng/mL
  Blood parameters TC: 142.9 ± 6.6 mg/dL
[1]; [4]
  blood level of glucose: markedly lowered
  blood level of insulin: markedly lowered
[1]; oral gavage 4 weeks (formula I 10, 20, 40; Rosi 10; Feno 250 mg/kg/day), vs HF group
  circulating TG levels: decreased
PEPCK; 10 mg/kg/day oral gavage
  liver mRNA level of PEPCK: significantly reduced
PEPCK; 20 mg/kg/day oral gavage
  liver mRNA level of PEPCK: significantly reduced
PEPCK; 40 mg/kg/day oral gavage
  liver mRNA level of PEPCK: significantly reduced
G6Pase; 10 mg/kg/day oral gavage
  liver mRNA level of G6Pase: significantly reduced
G6Pase; 20 mg/kg/day oral gavage
  liver mRNA level of G6Pase: significantly reduced
G6Pase; 40 mg/kg/day oral gavage
  liver mRNA level of G6Pase: significantly reduced
DGAT2; 10 mg/kg/day oral gavage
  liver mRNA level of DGAT2: significantly reduced
DGAT2; 20 mg/kg/day oral gavage
  liver mRNA level of DGAT2: significantly reduced
DGAT2; 40 mg/kg/day oral gavage
  liver mRNA level of DGAT2: significantly reduced
GPAT; 10 mg/kg/day oral gavage
  liver mRNA level of GPAT: significantly reduced
GPAT; 20 mg/kg/day oral gavage
  liver mRNA level of GPAT: significantly reduced
GPAT; 40 mg/kg/day oral gavage
  liver mRNA level of GPAT: significantly reduced
adiponectin
  liver adiponectin mRNA level: enhanced
GLUT4; 10 mg/kg/day oral gavage
  protein level of GLUT4 at the plasma membrane: significantly enhanced
GLUT4; 20 mg/kg/day oral gavage
  protein level of GLUT4 at the plasma membrane: significantly enhanced
GLUT4; 40 mg/kg/day oral gavage
  protein level of GLUT4 at the plasma membrane: significantly enhanced
